{
  "source": "patent USRE38046E1",
  "about": "“Enhancement of the cellular immune response” (Biomira, Inc., priority 1986, dated 2003)",
  "key": {"DTH effector cells": {"test_system": "DTH effector cells", "experiment": "Local transfer of DTH: antigen-primed spleen/T cells co-injected with triggering antigen into foot pad, net DTH swelling", "type": "in vivo, mice"}, "TA3Ha cells": {"test_system": "TA3Ha cells", "experiment": "Priming with antigen, challenge 2-3 days later with live TA3Ha cells, survival", "type": "in vivo, mice", "description": "Groups of five mice at a time were primed with specific doses of T-alpha (TF) (Ta), T-beta (Tb) (asialo-GM1 disaccharide) and Tn S-Tags. After 2-3 days, they were challenged with 3×10^3 live TA3Ha cells.\nGroups of five mice were primed with specific doses of epi. After 2-3 days they were challenged with 3′10^3 live TA3Ha cells."}},
  "data": [
    {"substance": "Epiglycanin", "values": [
      {"measurement": "DTH reaction", "setting": "DTH effector cells; cells primed with the priming Ag, triggering Ag Fuc", "value": "not to those carbohydrate determinants which are not represented on epiglycanin"},
      {"measurement": "DTH reaction", "setting": "DTH effector cells; cells primed with the priming Ag, triggering Ag Ta, listed as epi", "value": "reaction was with the T alpha, T beta and Tn determinants"},
      {"measurement": "DTH reaction", "setting": "DTH effector cells; cells primed with the priming Ag, triggering Ag Tb, listed as epi", "value": "reaction was with the T alpha, T beta and Tn determinants"},
      {"measurement": "DTH reaction", "setting": "DTH effector cells; cells primed with the priming Ag, triggering Ag Tn, listed as epi", "value": "reaction was with the T alpha, T beta and Tn determinants"},
      {"measurement": "DTH reaction", "setting": "DTH effector cells; triggering antigen Epi-M (epi linked to SEPHAROSE microspheres)", "value": "induced a specific DTH response"},
      {"measurement": "DTH reaction", "setting": "DTH effector cells; triggering antigen irradiated TA3Ha cells", "value": "induced a specific DTH response"},
      {"measurement": "In Vivo Protection: Number of animals alive at 4 weeks", "setting": "TA3Ha cells; Dose of Ag 0.1 ug", "value": "1/20"},
      {"measurement": "In Vivo Protection: Number of animals alive at 4 weeks", "setting": "TA3Ha cells; Dose of Ag 0.5 ug", "value": "5/20"},
      {"measurement": "In Vivo Protection: Number of animals alive at 4 weeks", "setting": "TA3Ha cells; Dose of Ag 1.0 ug", "value": "8/20"},
      {"measurement": "In Vivo Protection: Number of animals alive at 4 weeks", "setting": "TA3Ha cells; Dose of Ag 5.0 ug", "value": "8/15"},
      {"measurement": "In Vivo Protection: Number of animals alive at 4 weeks", "setting": "TA3Ha cells; Dose of Ag 10.0 ug", "value": "7/20"},
      {"measurement": "No. alive (at d. 9)", "setting": "TA3Ha cells; priming dose 0.2 ug", "value": "2/5"},
      {"measurement": "Survival ave.", "setting": "TA3Ha cells; priming dose 0.2 ug", "value": 33.8, "unit": "days"},
      {"measurement": "No. alive (at d. 9)", "setting": "TA3Ha cells; priming dose 1 ug", "value": "4/5"},
      {"measurement": "Survival ave.", "setting": "TA3Ha cells; priming dose 1 ug", "value": 44.2, "unit": "days"},
      {"measurement": "No. alive (at d. 9)", "setting": "TA3Ha cells; priming dose 2 ug", "value": "4/5"},
      {"measurement": "Survival ave.", "setting": "TA3Ha cells; priming dose 2 ug", "value": 25.2, "unit": "days"},
      {"measurement": "No. alive (at d. 9)", "setting": "TA3Ha cells; priming dose 10 ug", "value": "0/4"},
      {"measurement": "Survival ave.", "setting": "TA3Ha cells; priming dose 10 ug", "value": 22.3, "unit": "days"},
      {"measurement": "No. alive (at d. 9)", "setting": "TA3Ha cells; priming dose 20 ug", "value": "1/5"},
      {"measurement": "Survival ave.", "setting": "TA3Ha cells; priming dose 20 ug", "value": 29.0, "unit": "days"},
      {"measurement": "No. alive (at d. 9)", "setting": "TA3Ha cells; priming dose 100 ug", "value": "1/5"},
      {"measurement": "Survival ave.", "setting": "TA3Ha cells; priming dose 100 ug", "value": 25.5, "unit": "days"},
      {"measurement": "protection against TA3Ha tumor cells", "setting": "TA3Ha cells; summary of Table 3", "value": "did provide protection"}
    ]}
  ]
}
